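Step 1: Grow cells in 96-well plates. Step 2: Expose to compound for 48 hours at 5 concentrations. Step 3: Interpolate endpoints linearly; if unreached, use highest concentration. The concentration for 50% growth inhibition is given as GI50.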 Calls of active or inactive are those of the source. Rule as the data show it: active = GI50 up to about 1.1 µM and inactive = higher.
Legend:
Assay in all cases: growth of human tumour cells (NCI), 48 h
NCI-H23 = system: NCI-H23
RXF 393 = system: RXF 393
SNB-75 = system: SNB-75
SK-MEL-28 = system: SK-MEL-28
ACHN = system: ACHN
NCI-H522 = system: NCI-H522
HT-29 = system: HT-29
HCT-116 = system: HCT-116
UACC-257 = system: UACC-257
HOP-92 = system: HOP-92
COLO 205 = system: COLO 205
SK-OV-3 = system: SK-OV-3
UO-31 = system: UO-31
KM12 = system: KM12
SR = system: SR
786-0 = system: 786-0
PC-3 = system: PC-3
SF-539 = system: SF-539
UACC-62 = system: UACC-62
Malme-3M = system: Malme-3M
MDA-MB-435 = system: MDA-MB-435
HL-60 = system: HL-60
SW-620 = system: SW-620
DU-145 = system: DU-145
HOP-62 = system: HOP-62
CCRF-CEM = system: CCRF-CEM
IGROV-1 = system: IGROV-1
HCC 2998 = system: HCC 2998
NCI-H460 = system: NCI-H460
U-251 = system: U-251
NCI-H226 = system: NCI-H226
SK-MEL-2 = system: SK-MEL-2
SNB-19 = system: SNB-19
SK-MEL-5 = system: SK-MEL-5
Hs-578T = system: Hs-578T
SN12C = system: SN12C
MOLT-4 = system: MOLT-4
A498 = system: A498
OVCAR-4 = system: OVCAR-4
K562 = system: K562
RPMI-8226 = system: RPMI-8226
SF-268 = system: SF-268
MCF7 = system: MCF7
LOX IMVI = system: LOX IMVI
OVCAR-8 = system: OVCAR-8
CAKI-1 = system: CAKI-1
M14 = system: M14
HCT-15 = system: HCT-15
MDA-MB-231 = system: MDA-MB-231
NCI/ADR-RES = system: NCI/ADR-RES
A549 = system: A549
TK-10 = system: TK-10
T47D = system: T47D
MDA-N = system: MDA-N
OVCAR-5 = system: OVCAR-5
OVCAR-3 = system: OVCAR-3
SF-295 = system: SF-295
EKVX = system: EKVX

Compound: O=C(Cn1c(=O)oc2ccc(C(=O)c3ccc(F)cc3)cc21)c1ccc([N+](=O)[O-])cc1
- GI50 (NCI-H23): 45.6 µM (inactive)
- GI50 (RXF 393): 27.3 µM (inactive)
- GI50 (SNB-75): 36.9 µM (inactive)
- GI50 (SK-MEL-28): 45.3 µM (inactive)
- GI50 (ACHN): 35 µM (inactive)
- GI50 (NCI-H522): 18.8 µM (inactive)
- GI50 (HT-29): 39 µM (inactive)
- GI50 (HCT-116): 29.6 µM (inactive)
- GI50 (UACC-257): 60.3 µM (inactive)
- GI50 (HOP-92): 49.3 µM (inactive)
- GI50 (COLO 205): 26.9 µM (inactive)
- GI50 (SK-OV-3): 69.8 µM (inactive)
- GI50 (UO-31): 19.6 µM (inactive)
- GI50 (KM12): 22.8 µM (inactive)
- GI50 (SR): 12.6 µM (inactive)
- GI50 (786-0): 33 µM (inactive)
- GI50 (PC-3): 22.5 µM (inactive)
- GI50 (SF-539): 41.1 µM (inactive)
- GI50 (UACC-62): 34.2 µM (inactive)
- GI50 (Malme-3M): 31.8 µM (inactive)
- GI50 (MDA-MB-435): 19.3 µM (inactive)
- GI50 (HL-60): 8.2 µM (inactive)
- GI50 (SW-620): 36.7 µM (inactive)
- GI50 (DU-145): 46.7 µM (inactive)
- GI50 (HOP-62): 54.5 µM (inactive)
- GI50 (CCRF-CEM): 19.1 µM (inactive)
- GI50 (IGROV-1): 24.3 µM (inactive)
- GI50 (HCC 2998): 15.9 µM (inactive)
- GI50 (NCI-H460): 32.8 µM (inactive)
- GI50 (U-251): 34.3 µM (inactive)
- GI50 (NCI-H226): 27.3 µM (inactive)
- GI50 (SK-MEL-2): 20.2 µM (inactive)
- GI50 (SNB-19): 47.1 µM (inactive)
- GI50 (SK-MEL-5): 15.7 µM (inactive)
- GI50 (Hs-578T): 20.4 µM (inactive)
- GI50 (SN12C): 60.3 µM (inactive)
- GI50 (MOLT-4): 18.2 µM (inactive)
- GI50 (A498): 25.5 µM (inactive)
- GI50 (OVCAR-4): 25.5 µM (inactive)
- GI50 (K562): 28.3 µM (inactive)
- GI50 (RPMI-8226): 22.2 µM (inactive)
- GI50 (SF-268): 45 µM (inactive)
- GI50 (MCF7): 31.7 µM (inactive)
- GI50 (LOX IMVI): 34.8 µM (inactive)
- GI50 (OVCAR-8): 25.8 µM (inactive)
- GI50 (CAKI-1): 47.6 µM (inactive)
- GI50 (M14): 13 µM (inactive)
- GI50 (HCT-15): 20.9 µM
- GI50 (MDA-MB-231): 28.9 µM (inactive)
- GI50 (NCI/ADR-RES): 33.8 µM (inactive)
- GI50 (A549): 37.1 µM (inactive)
- GI50 (TK-10): 36.6 µM (inactive)
- GI50 (T47D): 24.7 µM (inactive)
- GI50 (MDA-N): 21 µM (inactive)
- GI50 (OVCAR-5): > 100 µM (inactive)

Compound: [O-]/[N+](=N/c1ncc(-c2ccccc2)cn1)c1ncc(-c2ccccc2)cn1
- GI50 (NCI-H23): > 100 µM (inactive)
- GI50 (RXF 393): 60.5 µM (inactive)
- GI50 (SNB-75): > 100 µM (inactive)
- GI50 (SK-MEL-28): > 61.9 µM (inactive)
- GI50 (ACHN): > 100 µM (inactive)
- GI50 (NCI-H522): 14.8 µM (inactive)
- GI50 (HT-29): > 78 µM (inactive)
- GI50 (HCT-116): 31.6 µM (inactive)
- GI50 (UACC-257): > 100 µM (inactive)
- GI50 (HOP-92): 69 µM (inactive)
- GI50 (COLO 205): > 100 µM (inactive)
- GI50 (SK-OV-3): > 100 µM (inactive)
- GI50 (UO-31): > 66.1 µM (inactive)
- GI50 (OVCAR-3): > 83.8 µM (inactive)
- GI50 (KM12): 67.6 µM (inactive)
- GI50 (SR): 16.4 µM (inactive)
- GI50 (786-0): 99.5 µM (inactive)
- GI50 (PC-3): 92.7 µM (inactive)
- GI50 (SF-539): > 65.2 µM (inactive)
- GI50 (UACC-62): > 100 µM (inactive)
- GI50 (Malme-3M): 32.2 µM (inactive)
- GI50 (MDA-MB-435): 40.5 µM (inactive)
- GI50 (HL-60): 39.1 µM (inactive)
- GI50 (SF-295): 73.5 µM (inactive)
- GI50 (SW-620): > 95.7 µM (inactive)
- GI50 (DU-145): > 100 µM (inactive)
- GI50 (HOP-62): > 100 µM (inactive)
- GI50 (CCRF-CEM): 34.4 µM (inactive)
- GI50 (IGROV-1): 29.9 µM (inactive)
- GI50 (HCC 2998): > 100 µM (inactive)
- GI50 (NCI-H460): > 100 µM (inactive)
- GI50 (U-251): 44.1 µM (inactive)
- GI50 (NCI-H226): > 94.8 µM (inactive)
- GI50 (SK-MEL-2): > 100 µM (inactive)
- GI50 (SNB-19): > 58.3 µM (inactive)
- GI50 (SK-MEL-5): 42.7 µM (inactive)
- GI50 (Hs-578T): > 76.6 µM (inactive)
- GI50 (SN12C): > 100 µM (inactive)
- GI50 (MOLT-4): > 64.6 µM (inactive)
- GI50 (A498): > 100 µM (inactive)
- GI50 (OVCAR-4): 54.6 µM (inactive)
- GI50 (K562): 52.8 µM (inactive)
- GI50 (EKVX): 63.5 µM (inactive)
- GI50 (RPMI-8226): > 64.6 µM (inactive)
- GI50 (SF-268): > 84.7 µM (inactive)
- GI50 (MCF7): 36 µM (inactive)
- GI50 (LOX IMVI): 43.4 µM (inactive)
- GI50 (OVCAR-8): > 96.6 µM (inactive)
- GI50 (CAKI-1): > 100 µM (inactive)
- GI50 (M14): > 100 µM (inactive)
- GI50 (HCT-15): 36.4 µM
- GI50 (MDA-MB-231): > 100 µM (inactive)
- GI50 (NCI/ADR-RES): 62.1 µM (inactive)
- GI50 (A549): > 100 µM (inactive)
- GI50 (TK-10): > 100 µM (inactive)
- GI50 (T47D): > 79.8 µM (inactive)
- GI50 (MDA-N): > 100 µM (inactive)
- GI50 (OVCAR-5): > 100 µM (inactive)

Compound: C/C(=N\O)C1CC2C=C(C#N)C1N(Cc1ccccc1)C2 (configuration not stated)
- GI50 (NCI-H23): > 100 µM (inactive)
- GI50 (RXF 393): > 100 µM (inactive)
- GI50 (SNB-75): > 100 µM (inactive)
- GI50 (SK-MEL-28): > 100 µM (inactive)
- GI50 (ACHN): 93.8 µM (inactive)
- GI50 (HT-29): > 100 µM (inactive)
- GI50 (HCT-116): > 100 µM (inactive)
- GI50 (UACC-257): > 100 µM (inactive)
- GI50 (HOP-92): > 100 µM (inactive)
- GI50 (COLO 205): > 100 µM (inactive)
- GI50 (SK-OV-3): > 100 µM (inactive)
- GI50 (UO-31): > 100 µM (inactive)
- GI50 (OVCAR-3): > 100 µM (inactive)
- GI50 (KM12): > 100 µM (inactive)
- GI50 (SR): > 100 µM (inactive)
- GI50 (786-0): > 100 µM (inactive)
- GI50 (PC-3): > 100 µM (inactive)
- GI50 (SF-539): > 100 µM (inactive)
- GI50 (UACC-62): > 100 µM (inactive)
- GI50 (Malme-3M): > 100 µM (inactive)
- GI50 (MDA-MB-435): > 100 µM (inactive)
- GI50 (HL-60): > 100 µM (inactive)
- GI50 (SF-295): > 100 µM (inactive)
- GI50 (SW-620): > 100 µM (inactive)
- GI50 (DU-145): > 100 µM (inactive)
- GI50 (HOP-62): > 100 µM (inactive)
- GI50 (CCRF-CEM): > 100 µM (inactive)
- GI50 (HCC 2998): 80.5 µM (inactive)
- GI50 (NCI-H460): 74.5 µM (inactive)
- GI50 (U-251): 46.3 µM (inactive)
- GI50 (NCI-H226): > 100 µM (inactive)
- GI50 (SNB-19): > 100 µM (inactive)
- GI50 (SK-MEL-5): > 100 µM (inactive)
- GI50 (Hs-578T): > 100 µM (inactive)
- GI50 (SN12C): > 100 µM (inactive)
- GI50 (MOLT-4): > 100 µM (inactive)
- GI50 (A498): > 100 µM (inactive)
- GI50 (K562): > 100 µM (inactive)
- GI50 (EKVX): > 100 µM (inactive)
- GI50 (RPMI-8226): > 100 µM (inactive)
- GI50 (SF-268): > 100 µM (inactive)
- GI50 (MCF7): > 100 µM (inactive)
- GI50 (LOX IMVI): > 100 µM (inactive)
- GI50 (OVCAR-8): 45.3 µM (inactive)
- GI50 (CAKI-1): > 100 µM (inactive)
- GI50 (M14): > 100 µM (inactive)
- GI50 (HCT-15): > 100 µM
- GI50 (MDA-MB-231): > 100 µM (inactive)
- GI50 (NCI/ADR-RES): > 100 µM (inactive)
- GI50 (A549): > 100 µM (inactive)
- GI50 (TK-10): > 100 µM (inactive)
- GI50 (T47D): > 100 µM (inactive)
- GI50 (MDA-N): > 100 µM (inactive)
- GI50 (OVCAR-5): > 100 µM (inactive)
